Tests used:
Details in all cases: 72 h
ML-2 [1] = system: ML-2
Summary of the method: (§1)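 Fifteen myeloid leukaemia cell lines were seeded in RPMI 1640 at a density titrated to the linear growth range. Each line went into 384-well plates with compounds acoustically pre-printed at five tenfold doses from 1 to 10,000 nM, in duplicate, and was incubated for 72 h at 37 °C with 5% CO2. Luminescent ATP viability was normalised to vehicle and to a positive control at 10 µM. The IC50 came from four-parameter log-logistic dose–response fits.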

Mono-Mac-6 [2] = system: Mono-Mac-6
Summary of the method: as §1

THP-1 [3] = system: THP-1
Summary of the method: as §1

K-562 [4] = system: K-562
Summary of the method: as §1

KCL-22 [5] = system: KCL-22
Summary of the method: as §1

LAMA-84 [6] = system: LAMA-84
Summary of the method: as §1

SHI-1 [7] = system: SHI-1
Summary of the method: as §1

KU-812 [8] = system: KU-812
Summary of the method: as §1

MV4-11 [9] = system: MV4-11
Summary of the method: as §1

HL-60 [10] = system: HL-60
Summary of the method: as §1

MOLM-13 [11] = system: MOLM-13
Summary of the method: as §1

KG-1 [12] = system: KG-1
Summary of the method: as §1

NOMO-1 [13] = system: NOMO-1
Summary of the method: as §1

HEL [14] = system: HEL
Summary of the method: as §1

BV-173 [15] = system: BV-173
Summary of the method: as §1

ML-2 [16] = assay: cell viability (% survival relative to DMSO control, bortezomib = 0%); higher = less cytotoxic
Summary of the method: (§2)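 Fifteen myeloid leukaemia cell lines were exposed to compounds at 1, 10, 100, 1000 or 10000 nM in 384-well plates for 72 h at 37 °C and 5% CO2. Viability was read by CellTiter-Glo luminescence and normalised, with vehicle as 100% and a 10 µM positive control as 0%. Values are percent survival averaged over duplicates.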

Mono-Mac-6 [17] = assay: as above
Summary of the method: as §2

THP-1 [18] = assay: as above
Summary of the method: as §2

K-562 [19] = assay: as above
Summary of the method: as §2

KCL-22 [20] = assay: as above
Summary of the method: as §2

LAMA-84 [21] = assay: as above
Summary of the method: as §2

SHI-1 [22] = assay: as above
Summary of the method: as §2

KU-812 [23] = assay: as above
Summary of the method: as §2

MV4-11 [24] = assay: as above
Summary of the method: as §2

HL-60 [25] = assay: as above
Summary of the method: as §2

MOLM-13 [26] = assay: as above
Summary of the method: as §2

KG-1 [27] = assay: as above
Summary of the method: as §2

NOMO-1 [28] = assay: as above
Summary of the method: as §2

HEL [29] = assay: as above
Summary of the method: as §2

BV-173 [30] = assay: as above
Summary of the method: as §2

CO[C@H]1C[C@@H]2CC[C@@H](C)[C@@](O)(O2)C(=O)C(=O)N2CCCC[C@H]2C(=O)O[C@H]([C@H](C)C[C@@H]2CC[C@@H](OCCO)[C@H](OC)C2)CC(=O)[C@H](C)/C=C(\C)[C@@H](O)[C@@H](OC)C(=O)[C@H](C)C[C@H](C)/C=C/C=C/C=C/1C [Everolimus]
Details	IC50 (cell viability) [nM]
BV-173 [15]	4.11
HEL [14]	2.74
HL-60 [10]	3920
K-562 [4]	3.42
KCL-22 [5]	1.21
KG-1 [12]	< 1
KU-812 [8]	< 1
LAMA-84 [6]	782
ML-2 [1]	1530
MOLM-13 [11]	< 1
MV4-11 [9]	248
Mono-Mac-6 [2]	1.04
NOMO-1 [13]	22.5
SHI-1 [7]	1.15
THP-1 [3]	1.65

cell viability [%]
Details	1 nM	10 nM	100 nM	1000 nM	10000 nM
BV-173 [30]	79.3	51.9	56	43.6	34.3
HEL [29]	94.9	65.6	67	62.3	58.5
HL-60 [25]	91.4	75.6	86.3	54.9	43
K-562 [19]	71	50.4	48.8	44.5	30.6
KCL-22 [20]	66	44.6	36.2	33.8	24.6
KG-1 [27]	54.3	45.1	41	37.3	30.5
KU-812 [23]	58.5	44.9	44.8	39.4	36
LAMA-84 [21]	72.2	52.8	62.8	53.7	37.9
ML-2 [16]	88.7	77.3	66.6	58.6	33.8
MOLM-13 [26]	49	38.1	48.3	29.7	34.6
MV4-11 [24]	62.1	64.6	61.8	53.6	22.6
Mono-Mac-6 [17]	74.2	46.4	53.1	40.7	44.2
NOMO-1 [28]	79.7	63.9	72.7	60.4	56.8
SHI-1 [22]	81.8	60.4	65.8	56.7	55.7
THP-1 [18]	83.8	67.5	66.9	59.8	58.9

Source: the supplement of paper PMC8671470
